# Data from patent EP1561465A2, “Methods of use of fluoroquinolone compounds against bacteria” (LG Life Sciences, Ltd., priority 1999, dated 2001).
# Where two headings read alike, the source gives them in different places.
# Legend:
# Assay type in all cases: cell-based
# Streptococcus pneumoniae = test: MIC by agar dilution (NCCLS), 411 isolates Buenos Aires 1998-99; conditions: S. pneumoniae
# Haemophilus influenzae = test: MIC by NCCLS reference broth microdilution, 450 respiratory tract pathogens; conditions: Haemophilus influenzae; for MIC90: read-out: MIC90
# Moraxella catarrhalis = test: as above
# Staphylococcus aureus = test: as above
# Klebsiella pneumoniae = test: as above; conditions: for MIC50 / MIC90: Klebsiella pneumoniae
# [1] = Haemophilus influenzae (n = 100)
# [2] = β-lactamase positive and erythromycin resistant (n = 10)
# [3] = extended spectrum β-lactamase negative (n = 30)
# [4] = extended spectrum β-lactamase positive (n = 20)
compound,measurement,setting,value
amoxycillin/clavulanate,MIC90,Streptococcus pneumoniae; Penicillin intermediate (n = 17),1 µg/mL
same,MIC90,Streptococcus pneumoniae; Penicillin resistant (n = 4),1 µg/mL
same,MIC90,Streptococcus pneumoniae; Penicillin susceptible (n = 69),0.016 µg/mL
"COc1c(N2C[C@@H]3CCCN[C@@H]3C2)c(F)cc2c(=O)c(C(=O)O)cn(C3CC3)c12 [Moxifloxacin, moxifloxacin]",MIC,Haemophilus influenzae; [1],0.0075 to 0.12 µg/mL
same,MIC50,Haemophilus influenzae; [1],0.03 µg/mL
same,MIC90,Haemophilus influenzae; [1],0.06 µg/mL
same,MIC,Haemophilus influenzae; β-lactamase negative (n = 80),0.0075 to 0.06 µg/mL
same,MIC50,Haemophilus influenzae; β-lactamase negative (n = 80),0.03 µg/mL
same,MIC90,Haemophilus influenzae; β-lactamase negative (n = 80),0.06 µg/mL
same,MIC,Haemophilus influenzae; β-lactamase positive (n = 20),0.0075 to 0.06 µg/mL
same,MIC50,Haemophilus influenzae; β-lactamase positive (n = 20),0.015 µg/mL
same,MIC90,Haemophilus influenzae; β-lactamase positive (n = 20),0.015 µg/mL
same,MIC,Moraxella catarrhalis; Moraxella catarrhalis (n = 50),0.00375 to 0.12 µg/mL
same,MIC50,Moraxella catarrhalis; Moraxella catarrhalis (n = 50),0.06 µg/mL
same,MIC90,Moraxella catarrhalis; Moraxella catarrhalis (n = 50),0.06 µg/mL
same,MIC,Moraxella catarrhalis; β-lactamase negative (n = 13),0.00375 to 0.12 µg/mL
same,MIC50,Moraxella catarrhalis; β-lactamase negative (n = 13),0.015 µg/mL
same,MIC90,Moraxella catarrhalis; β-lactamase negative (n = 13),0.06 µg/mL
same,MIC,Moraxella catarrhalis; β-lactamase positive (n = 37),0.00375 to 0.12 µg/mL
same,MIC50,Moraxella catarrhalis; β-lactamase positive (n = 37),0.03 µg/mL
same,MIC90,Moraxella catarrhalis; β-lactamase positive (n = 37),0.06 µg/mL
same,MIC,Staphylococcus aureus; Staphylococcus aureus (n = 50),0.015 to 0.5 µg/mL
same,MIC50,Staphylococcus aureus; Staphylococcus aureus (n = 50),0.25 µg/mL
same,MIC90,Staphylococcus aureus; Staphylococcus aureus (n = 50),0.5 µg/mL
same,MIC,Staphylococcus aureus; β-lactamase negative (n = 20),0.06 to 0.5 µg/mL
same,MIC50,Staphylococcus aureus; β-lactamase negative (n = 20),0.25 µg/mL
same,MIC90,Staphylococcus aureus; β-lactamase negative (n = 20),0.5 µg/mL
same,MIC,Staphylococcus aureus; β-lactamase positive (n = 20),0.12 to 0.5 µg/mL
same,MIC50,Staphylococcus aureus; β-lactamase positive (n = 20),0.25 µg/mL
same,MIC90,Staphylococcus aureus; β-lactamase positive (n = 20),0.5 µg/mL
same,MIC,Staphylococcus aureus; [2],0.12 to 0.5 µg/mL
same,MIC50,Staphylococcus aureus; [2],0.25 µg/mL
same,MIC90,Staphylococcus aureus; [2],0.5 µg/mL
same,MIC Range,Klebsiella pneumoniae; Klebsiella pneumoniae (n = 50),0.015 to 1 µg/mL
same,MIC50,Klebsiella pneumoniae; Klebsiella pneumoniae (n = 50),0.06 µg/mL
same,MIC90,Klebsiella pneumoniae; Klebsiella pneumoniae (n = 50),0.5 µg/mL
same,MIC50,Klebsiella pneumoniae; [3],0.06 µg/mL
same,MIC90,Klebsiella pneumoniae; [3],0.25 µg/mL
same,MIC50,Klebsiella pneumoniae; [4],0.5 µg/mL
same,MIC90,Klebsiella pneumoniae; [4],1 µg/mL
same,MIC Range,Klebsiella pneumoniae; [3],0.015 to 0.5 µg/mL
same,MIC Range,Klebsiella pneumoniae; [4],0.06 to 1 µg/mL
"CO/N=C(\C(=O)N[C@@H]1C(=O)N2C(C(=O)O)=C(CSc3nc(=O)c(=O)[nH]n3C)CS[C@H]12)c1csc(N)n1 [Ceftriaxone, ceftriaxone]",MIC90,"Streptococcus pneumoniae; Streptococcus pneumoniae, Penicillin intermediate (n = 17), read-out: MIC90",1 µg/mL
same,MIC90,"Streptococcus pneumoniae; Streptococcus pneumoniae, Penicillin resistant (n = 4), read-out: MIC90",1 µg/mL
same,MIC90,"Streptococcus pneumoniae; Streptococcus pneumoniae, Penicillin susceptible (n = 69), read-out: MIC90",0.016 µg/mL
